In PMC11400632, “Substrate selectivity and inhibition of the human lysyl hydroxylase JMJD7” (Protein Science : A Publication of the Protein Society, 2024):

Legend:
Assay type in all cases: biochemical
[1] = target: T1, human JMJD7 (Homo sapiens, UniProt P0C870); assay: LC-MS assay of JMJD7-catalyzed hydroxylation/oxidation of DRG1 peptides; details: standard conditions: 2 μM JMJD7, 10 μM peptide, 10 μM 2OG, 2 h
T1 construct: human JMJD7 (residues 1–316) with an N‐terminal His6‐tag; His6 (N); made in house; host or cells: Escherichia coli Rosetta (DE3)
T1 sequence (P0C870 whole entry, the tested form may be a part): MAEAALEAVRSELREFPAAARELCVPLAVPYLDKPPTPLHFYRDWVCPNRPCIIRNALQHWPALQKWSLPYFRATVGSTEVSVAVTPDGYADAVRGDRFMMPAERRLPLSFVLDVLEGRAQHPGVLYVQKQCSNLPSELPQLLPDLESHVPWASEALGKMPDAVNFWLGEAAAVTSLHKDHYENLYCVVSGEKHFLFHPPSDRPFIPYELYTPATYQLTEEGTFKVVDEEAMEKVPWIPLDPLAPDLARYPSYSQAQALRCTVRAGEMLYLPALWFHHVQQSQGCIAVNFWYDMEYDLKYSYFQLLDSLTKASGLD
Method: Initial assays were carried out by incubation of purified recombinant (Markolovic et al., [2018]) human JMJD7 (2 μM) in the presence of a DRG1 derived peptide (10 μM), 2OG (10 μM), ferrous ammonium sulfate (FAS, 10 μM), and L‐ascorbate (LAA, 100 μM) in Tris buffer at pH 7.5 for 2 h at room temperature. Potential conversion to a hydroxylated product (+16 Da mass shift) was monitored by liquid‐chromatography‐mass‐spectrometry (LC–MS). […] The assay results also implied that DRG1‐Orn was hydroxylated, but to a lower extent (~21%) than DRG1‐Lys. […] The alcohol‐containing peptide hydroxynorleucine (DRG1‐HNle), was hydroxylated at relatively low levels (~24%), implying that H‐bonding interactions and positive charge of the N^ɛ‐amino group of lysine are important for efficient binding and catalysis, but that a neutral alcohol can still be accommodated at the active site (Figure 3f) (Markolovic et al., [2018]).
All reagents were procured from Sigma Aldrich. 2‐Oxoglutarate (2OG, 10 mM) and L‐ascorbic acid (LAA, 50 mM) solutions were prepared freshly by dissolving the solids in deionized water. Ferrous ammonium sulfate (FAS) solution was prepared freshly by dissolving FAS at 400 mM in 20 mM HCl with subsequent dilution to 1 mM using deionized water. JMJD7 assays using DRG1 (16–40) based peptides were performed with the following conditions: (i) 2 or 5 μM JMJD7, 10 μM DRG1 peptide, 100 μM LAA, 10 μM FAS, 10 μM 2OG in mM 50 Tris‐buffer (pH 7.5), (ii) 2 μM JMJD7, 10 μM DRG1 peptide, 100 μM LAA, 10 μM FAS, 20 μM 2OG in mM 50 Tris‐buffer (pH 7.5). Reactions were initiated by addition of enzyme to the cosubstrate/substrate solution in a final reaction volume of 50 μL with 2 h incubation at room temperature. A positive control reaction containing enzyme and a validated peptide substrate was included in all screening studies. After 2 h, reactions were stopped by addition of 5 μL of 10% (v/v) LC–MS grade formic acid (Fisher Scientific) and transferred to a 96 well plate (Agilent). Intact mass peptide analysis was performed by LC–MS using an Agilent 1290 infinity II LC system equipped with an Agilent 1290 multisampler and an Agilent 1290 high speed pump and connected to an Agilent 6550 accurate mass iFunnel quadrupole time of flight (Q‐TOF) mass spectrometer. The reaction mixture (4 μL) was injected and loaded onto a ZORBAX RRHD Eclipse Plus C18 column (Agilent). Solvent A consisted of LC–MS grade water containing 0.1% (v/v) formic acid and solvent B consisted of MeCN containing 0.1% (v/v) formic acid. Peptides were separated using a step wise gradient (0 min – 95% solvent A, 1.0 min – 80% solvent A, 3.0 min – 45% solvent A, 4.0 min – 45% solvent A, 5.0 min – 0% solvent A, 6.0 min – 0% solvent A, 7.0 min – 95% solvent A). This was followed by a 3 min elution with 95% solvent A to re‐equilibrate the column. Flow rates were 0.2 mL/min. The mass spectrometer was operated in the positive ion mode with a drying gas temperature (280°C), drying gas flow rate (13 L min^−1), nebulizer pressure (40 psig), sheath gas temperature (350°C), sheath gas flow rate (12 L min^−1), capillary voltage (4000 V), nozzle voltage (1000 V). Data were analyzed using Agilent MassHunter Qualitative Analysis (Version B.07.00) software.

[2] = target: T1, human JMJD7; assay: SPE-MS time-course and steady-state kinetics of JMJD7-catalyzed hydroxylation; details: 1.0 μM peptide, 50 nM JMJD7, SPE-MS time-course
Method: Having shown that introduction of γ‐thialysine and γ‐azalysine residues into DRG1 peptides generates substrates that are efficiently hydroxylated by JMJD7, giving nascent products that fragment to give formylglycine, we explored whether these two peptides could compete with the DRG1‐Lys substrate for JMJD7 catalysis. The reactions of DRG1‐Lys, DRG1‐CysNH2 and DRG1‐LysN (1.0 μM) by JMJD7 (50 nM) were investigated as a function of time using SPE‐MS assays.
To quantify the relative efficiencies of DRG1‐Lys and the substrate analog DRG1‐LysE, we carried out kinetics analyses using SPE‐MS assays as the levels of JMJD7‐catalyzed hydroxylation were sufficient for these two substrates.
JMJD7 turnover assays for kinetic studies were performed in 96‐well polypropylene assay plates with 1.0 mL total reaction volume using a series of concentrations of the DRG1 peptide (0.1–5.0 μM), 2OG (20 μM), FAS (10 μM), LAA (100 μM). Reactions were initiated by the addition of JMJD7 (100 nM). MS‐analyses were performed using a RapidFire RF 365 high‐throughput sampling robot (Agilent) attached to an iFunnel Agilent 6550 accurate mass quadrupole time‐of‐flight (Q‐TOF) mass spectrometer operated in the positive ionization mode. The RapidFire RF 365 high‐throughput sampling robot was programmed to aspirate samples from the reaction mixture at the indicated time intervals. Assay samples were loaded onto a C4 solid phase extraction (SPE) cartridge and peptides were eluted using given previous protocols (Tumber et al., [2023]). The % conversion of the hydroxylation reaction were calculated from the ion chromatogram data by integrating peak areas using RapidFire Integrator 4.3.0 software (Agilent).

[3] = target: T1, human JMJD7; assay: NMR assay of JMJD7-catalyzed reaction of DRG1 peptides; details: 200 μM peptide, 10 μM JMJD7, 30 μM FAS, 200 μM 2OG, 500 μM LAA, phosphate buffer 10% D2O, pH 7.4, 1H NMR time-course
Method: To validate the fragmentation of the product on hydroxylation of the DRG1‐CysNH2 peptide, we performed NMR studies focusing on the appearance of small molecules, comparing the results with the DRG1‐Lys substrate. Reactions were carried out by incubating the DRG1 peptide (200 μM) in the presence or absence of enzyme (10 μM JMJD7, 30 μM FAS, 200 μM 2OG, 500 μM LAA, phosphate buffer in 10% D2O v/v, pH 7.4). […] The observation of a DRG1‐CysNH2 derived product with two methylene groups (triplets, δ ~ 3.13 ppm, δ ~ 2.75 ppm) together with spiking using a standard solution confirmed the formation of cysteamine (Figure 4c (1), Figure S35a). […] A loss in intensity of the cysteamine peaks was observed over time, possibly indicating oxidation and/or interactions with JMJD7 (Figure S35).
Stock solutions of L‐ascorbate (LAA; 500 mM), 2‐oxoglutarate (2OG; 20 mM), ferrous ammonium sulphate (FAS; 100 mM), and (trimethylsilyl)propionic‐2,2,3,3‐d 4 (TSP‐d 4; 8 mM) were freshly prepared in water on the day NMR assays were run. These stock solutions of LAA, FAS, and 2OG were diluted using aqueous buffer (50 mM sodium phosphate, pH 7.4, 10% v/v D2O) to give FAS (0.3 mM), 2OG (2 mM), and LAA (5 mM). DRG1 peptides were solubilized in buffer to a final concentration of 2 mM for use in NMR assays. […] Turnover was quantified using TSP‐d 4 as an internal standard.

time to complete JMJD7-catalyzed hydroxylation [2]: ≤ 4 min
time to formation of the cysteamine fragment [3]: ≤ 15 min
Substance: ARTQKNCysNH2ATAHHLGLLKARLAKLRR [DRG1‐CysNH2, 25-mer DRG1 (16–40) peptide with γ-thialysine at position 22]
fate of the JMJD7 C3-hydroxylation product [1]: fragmentation to form DRG1‐formylglycine and its hydrated products
